Data taken from article PMC4035429 (Neuroscience, 2014).

What was measured:
LRP1 [1] = biological target: LRP1 (Rattus norvegicus, UniProt G3V928); experiment: Aβ efflux through Z310 monolayer with LRP1 inhibition; type: cell-based; conditions: mean±SD
Aβ = conditions: ref Kanekiyo and Bu, 2009; cited from earlier work
LRP1 [2] = experiment: LRP1 knockdown efficiency in Z310 cells by Western blot; type: cell-based, rat; conditions: 10nM siRNA, LRP1 to β-actin ratio
[3] = LRP1 knockdown by siRNA plus 10mg/ml IVIG, p<0.001, n=3

LRP1 (Rattus norvegicus, UniProt G3V928), sequence (G3V928 20-4545): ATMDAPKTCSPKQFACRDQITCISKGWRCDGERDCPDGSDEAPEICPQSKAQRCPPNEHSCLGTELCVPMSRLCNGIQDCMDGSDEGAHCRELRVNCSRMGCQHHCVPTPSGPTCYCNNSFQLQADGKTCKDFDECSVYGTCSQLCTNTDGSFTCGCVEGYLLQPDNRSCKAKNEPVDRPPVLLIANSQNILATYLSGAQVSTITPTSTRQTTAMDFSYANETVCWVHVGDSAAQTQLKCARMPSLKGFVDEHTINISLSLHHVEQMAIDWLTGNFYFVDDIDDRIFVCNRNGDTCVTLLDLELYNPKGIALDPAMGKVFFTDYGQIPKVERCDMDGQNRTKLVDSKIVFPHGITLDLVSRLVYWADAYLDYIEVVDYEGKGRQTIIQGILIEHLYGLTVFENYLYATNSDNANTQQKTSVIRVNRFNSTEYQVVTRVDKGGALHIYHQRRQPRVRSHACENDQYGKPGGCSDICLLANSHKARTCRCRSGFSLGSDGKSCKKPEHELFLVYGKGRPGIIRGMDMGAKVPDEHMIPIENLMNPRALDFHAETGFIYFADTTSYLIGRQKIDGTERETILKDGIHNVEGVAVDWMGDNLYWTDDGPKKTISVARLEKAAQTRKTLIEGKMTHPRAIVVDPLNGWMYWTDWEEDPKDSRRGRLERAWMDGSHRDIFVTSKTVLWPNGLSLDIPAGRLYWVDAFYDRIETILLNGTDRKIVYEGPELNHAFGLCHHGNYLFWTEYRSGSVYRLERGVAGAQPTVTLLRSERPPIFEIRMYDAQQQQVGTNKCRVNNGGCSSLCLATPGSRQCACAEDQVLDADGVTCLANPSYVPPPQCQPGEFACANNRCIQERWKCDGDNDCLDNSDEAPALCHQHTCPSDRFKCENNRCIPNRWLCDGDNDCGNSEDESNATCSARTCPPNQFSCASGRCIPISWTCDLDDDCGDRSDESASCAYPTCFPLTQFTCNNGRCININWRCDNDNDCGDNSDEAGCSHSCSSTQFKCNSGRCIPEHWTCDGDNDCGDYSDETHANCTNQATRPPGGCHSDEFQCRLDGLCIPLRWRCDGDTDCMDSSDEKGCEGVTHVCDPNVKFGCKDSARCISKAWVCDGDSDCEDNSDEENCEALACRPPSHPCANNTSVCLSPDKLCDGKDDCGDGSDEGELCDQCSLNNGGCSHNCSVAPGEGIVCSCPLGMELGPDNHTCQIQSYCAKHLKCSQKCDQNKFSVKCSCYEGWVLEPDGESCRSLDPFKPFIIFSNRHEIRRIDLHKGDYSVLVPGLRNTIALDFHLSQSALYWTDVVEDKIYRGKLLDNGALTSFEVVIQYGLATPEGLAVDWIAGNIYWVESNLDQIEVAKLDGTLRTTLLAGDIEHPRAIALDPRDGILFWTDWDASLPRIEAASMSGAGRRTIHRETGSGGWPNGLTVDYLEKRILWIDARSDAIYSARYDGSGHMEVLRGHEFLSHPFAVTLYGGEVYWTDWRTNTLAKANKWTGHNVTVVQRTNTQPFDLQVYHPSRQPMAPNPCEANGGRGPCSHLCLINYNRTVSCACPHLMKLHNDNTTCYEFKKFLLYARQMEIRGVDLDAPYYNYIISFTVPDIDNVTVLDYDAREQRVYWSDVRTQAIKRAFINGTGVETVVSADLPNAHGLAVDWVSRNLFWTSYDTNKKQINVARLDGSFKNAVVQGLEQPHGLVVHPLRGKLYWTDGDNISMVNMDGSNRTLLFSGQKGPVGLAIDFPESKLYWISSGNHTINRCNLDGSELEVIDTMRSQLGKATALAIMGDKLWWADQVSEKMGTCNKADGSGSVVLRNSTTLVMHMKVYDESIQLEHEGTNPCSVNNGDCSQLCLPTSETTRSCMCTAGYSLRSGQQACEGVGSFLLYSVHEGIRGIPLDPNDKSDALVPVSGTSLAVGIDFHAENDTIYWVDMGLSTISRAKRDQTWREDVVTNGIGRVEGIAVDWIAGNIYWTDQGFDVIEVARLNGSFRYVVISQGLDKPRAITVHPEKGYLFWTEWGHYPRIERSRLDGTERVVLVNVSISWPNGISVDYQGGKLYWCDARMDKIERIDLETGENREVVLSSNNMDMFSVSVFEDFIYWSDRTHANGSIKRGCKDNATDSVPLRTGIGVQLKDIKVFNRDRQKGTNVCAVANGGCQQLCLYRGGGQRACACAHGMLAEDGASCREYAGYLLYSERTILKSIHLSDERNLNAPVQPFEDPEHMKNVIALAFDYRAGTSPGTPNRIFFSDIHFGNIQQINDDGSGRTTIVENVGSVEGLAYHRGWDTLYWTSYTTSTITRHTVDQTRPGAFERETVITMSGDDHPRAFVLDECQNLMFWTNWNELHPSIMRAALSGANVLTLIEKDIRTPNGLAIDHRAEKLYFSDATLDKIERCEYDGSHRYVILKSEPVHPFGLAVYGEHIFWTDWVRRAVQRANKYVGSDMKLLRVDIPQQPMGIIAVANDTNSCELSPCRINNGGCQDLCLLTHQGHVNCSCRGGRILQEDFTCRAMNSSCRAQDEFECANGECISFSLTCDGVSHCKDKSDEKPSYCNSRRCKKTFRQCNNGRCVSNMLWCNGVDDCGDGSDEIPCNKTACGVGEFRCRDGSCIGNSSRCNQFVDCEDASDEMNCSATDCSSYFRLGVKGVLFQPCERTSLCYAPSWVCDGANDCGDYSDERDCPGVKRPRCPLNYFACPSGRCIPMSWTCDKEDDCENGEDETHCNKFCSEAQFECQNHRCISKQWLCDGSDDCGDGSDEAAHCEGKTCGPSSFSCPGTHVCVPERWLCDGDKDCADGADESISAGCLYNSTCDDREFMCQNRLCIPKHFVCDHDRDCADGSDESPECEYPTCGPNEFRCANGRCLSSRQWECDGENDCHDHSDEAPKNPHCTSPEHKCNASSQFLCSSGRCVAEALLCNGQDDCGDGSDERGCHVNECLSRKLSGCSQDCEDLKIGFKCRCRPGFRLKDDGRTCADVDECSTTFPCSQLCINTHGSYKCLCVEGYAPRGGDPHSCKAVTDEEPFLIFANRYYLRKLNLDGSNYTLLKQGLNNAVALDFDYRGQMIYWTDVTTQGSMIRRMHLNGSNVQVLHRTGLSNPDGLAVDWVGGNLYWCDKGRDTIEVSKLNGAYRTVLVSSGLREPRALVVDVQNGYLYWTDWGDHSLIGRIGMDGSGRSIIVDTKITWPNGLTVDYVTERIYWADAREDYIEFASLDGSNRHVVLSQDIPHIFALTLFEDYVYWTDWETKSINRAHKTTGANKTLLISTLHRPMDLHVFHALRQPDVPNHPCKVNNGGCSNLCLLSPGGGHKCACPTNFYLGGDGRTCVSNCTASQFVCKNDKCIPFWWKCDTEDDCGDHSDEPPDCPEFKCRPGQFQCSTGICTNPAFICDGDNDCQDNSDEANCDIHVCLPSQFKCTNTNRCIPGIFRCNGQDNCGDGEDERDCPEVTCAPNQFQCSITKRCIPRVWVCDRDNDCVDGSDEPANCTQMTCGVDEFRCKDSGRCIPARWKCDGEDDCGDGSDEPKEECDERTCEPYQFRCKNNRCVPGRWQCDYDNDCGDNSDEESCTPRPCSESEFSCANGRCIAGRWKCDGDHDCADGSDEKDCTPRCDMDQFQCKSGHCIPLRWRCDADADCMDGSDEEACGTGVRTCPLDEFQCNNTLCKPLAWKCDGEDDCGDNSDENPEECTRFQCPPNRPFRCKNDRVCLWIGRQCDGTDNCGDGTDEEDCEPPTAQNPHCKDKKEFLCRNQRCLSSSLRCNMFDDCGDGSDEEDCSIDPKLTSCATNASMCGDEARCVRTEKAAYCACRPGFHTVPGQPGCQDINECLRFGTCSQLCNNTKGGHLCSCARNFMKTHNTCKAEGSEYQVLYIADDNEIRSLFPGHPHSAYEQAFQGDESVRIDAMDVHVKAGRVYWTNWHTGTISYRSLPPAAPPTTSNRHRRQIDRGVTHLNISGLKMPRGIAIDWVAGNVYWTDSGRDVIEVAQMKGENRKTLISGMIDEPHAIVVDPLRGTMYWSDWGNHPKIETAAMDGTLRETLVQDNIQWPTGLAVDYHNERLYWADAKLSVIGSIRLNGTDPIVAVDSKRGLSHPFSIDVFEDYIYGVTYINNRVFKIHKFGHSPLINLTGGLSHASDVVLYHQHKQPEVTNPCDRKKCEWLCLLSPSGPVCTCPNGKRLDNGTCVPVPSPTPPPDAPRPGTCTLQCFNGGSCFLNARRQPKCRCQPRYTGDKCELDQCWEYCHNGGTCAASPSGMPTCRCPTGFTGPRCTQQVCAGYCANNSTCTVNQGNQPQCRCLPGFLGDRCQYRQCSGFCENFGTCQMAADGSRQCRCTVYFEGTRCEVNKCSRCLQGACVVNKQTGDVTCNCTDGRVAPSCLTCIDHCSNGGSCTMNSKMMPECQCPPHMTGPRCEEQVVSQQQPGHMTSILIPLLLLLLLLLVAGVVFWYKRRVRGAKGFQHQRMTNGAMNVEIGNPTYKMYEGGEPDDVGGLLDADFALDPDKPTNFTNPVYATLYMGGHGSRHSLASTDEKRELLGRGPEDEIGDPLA

RAP: recombinant receptor-associated protein (EMD Millipore), a functional inhibitor of LRP1
IVIG-induced Aβ efflux from inner chambers at 1 hr (LRP1 [1]; 100 nM RAP plus 10mg/ml IVIG, IVIG alone 2.52±0.22, p<0.001, n=5): 1.77 ± 0.1 ng/mL
IVIG-induced Aβ efflux from inner chambers at 3 hrs (LRP1 [1]; 100 nM RAP plus 10mg/ml IVIG, IVIG alone 7.61±0.91, p<0.001, n=5): 5.41 ± 0.92 ng/mL
concentration at which RAP could bind Aβ (Aβ): above 500 nM

LRP1 siRNA: siRNA from Sigma-Aldrich; sense 5′ -CCUAUCUUUGAGAUCCGAA-3′, antisense 5′ -UUCGGAUCUCAAAGAUAGG-3′ (chemistry not given here)
reduction of LRP1 at protein expression levels as compared to the scrambled siRNA controls (LRP1 [2]): 84.7%
IVIG-induced Aβ efflux from inner chambers after 1 hr Aβ added (LRP1 [1]; [3]): 1.1 ± 0.28 ng/mL
IVIG-induced Aβ efflux from inner chambers after 3 hrs Aβ added (LRP1 [1]; [3]): 2.86 ± 0.86 ng/mL
Aβ concentration in outer chamber 1 hr after Aβ added (LRP1 [1]; LRP1 knockdown by siRNA, without IVIG, 1 μM Aβ, scrambled siRNA control 0.28±0.08, p<0.05, n=3): 0.02 ± 0.004 ng/mL
Aβ concentration in outer chamber 3 hrs after Aβ added (LRP1 [1]; LRP1 knockdown by siRNA, without IVIG, 1 μM Aβ, scrambled siRNA control 4.0±0.31, p<0.05, n=3): 1.17 ± 0.38 ng/mL

Aβ1-40: beta-amyloid 1-40 peptide (gift from Eli Lilly) added to the inner chamber at 1 μM
change of TEER between treated and untreated samples (Z310 cells): little change
